Experiment [1] has as its target Cyclin-dependent kinase 7 (Homo sapiens, UniProt P50613).
A further experiment has as its target GTP-binding protein 4 (Homo sapiens, UniProt Q9BZE4).
For experiment [2], the target named is Tyrosine-protein kinase HCK (Homo sapiens, UniProt P08631).
The target in experiment [3] is T1, Inhibitor of nuclear factor kappa-B kinase subunit epsilon (Homo sapiens, UniProt Q14164).
T1 sequence (Q14164 whole entry): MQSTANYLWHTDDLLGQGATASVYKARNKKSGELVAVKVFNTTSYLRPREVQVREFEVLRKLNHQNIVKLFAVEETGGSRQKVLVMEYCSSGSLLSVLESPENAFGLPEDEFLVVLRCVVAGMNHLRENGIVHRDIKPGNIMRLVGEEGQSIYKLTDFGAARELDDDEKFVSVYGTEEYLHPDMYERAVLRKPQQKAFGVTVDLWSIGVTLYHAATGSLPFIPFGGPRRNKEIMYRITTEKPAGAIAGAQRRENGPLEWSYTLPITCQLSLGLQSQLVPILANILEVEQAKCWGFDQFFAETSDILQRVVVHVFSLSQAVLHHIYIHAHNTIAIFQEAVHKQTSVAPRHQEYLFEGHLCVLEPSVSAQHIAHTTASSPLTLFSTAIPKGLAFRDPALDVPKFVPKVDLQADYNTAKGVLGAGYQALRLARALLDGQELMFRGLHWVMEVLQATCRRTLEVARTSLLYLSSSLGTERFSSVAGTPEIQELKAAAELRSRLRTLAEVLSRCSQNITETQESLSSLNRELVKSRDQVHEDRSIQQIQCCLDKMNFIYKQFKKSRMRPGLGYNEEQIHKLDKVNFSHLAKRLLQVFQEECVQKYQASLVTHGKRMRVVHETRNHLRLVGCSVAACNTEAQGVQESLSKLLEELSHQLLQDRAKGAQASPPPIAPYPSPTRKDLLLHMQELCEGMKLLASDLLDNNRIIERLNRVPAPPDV

The target in experiment [4] is Mitogen-activated protein kinase 3 (Homo sapiens, UniProt P27361).
Chain of Mitogen-activated protein kinase 3 (P27361 whole entry): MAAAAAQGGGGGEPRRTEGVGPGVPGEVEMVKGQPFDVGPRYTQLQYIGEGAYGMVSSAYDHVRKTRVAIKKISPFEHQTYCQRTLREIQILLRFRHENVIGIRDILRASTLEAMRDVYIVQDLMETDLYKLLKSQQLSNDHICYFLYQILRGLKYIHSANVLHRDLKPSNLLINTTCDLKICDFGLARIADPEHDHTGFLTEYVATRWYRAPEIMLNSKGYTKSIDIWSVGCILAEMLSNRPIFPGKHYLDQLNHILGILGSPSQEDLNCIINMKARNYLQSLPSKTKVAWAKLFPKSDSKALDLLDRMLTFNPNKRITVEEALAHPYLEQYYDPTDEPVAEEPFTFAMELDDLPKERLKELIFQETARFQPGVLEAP
Experiment [5] deals with T2, DNA replication licensing factor MCM4 (Homo sapiens, UniProt P33991).
T2 sequence (P33991 whole entry): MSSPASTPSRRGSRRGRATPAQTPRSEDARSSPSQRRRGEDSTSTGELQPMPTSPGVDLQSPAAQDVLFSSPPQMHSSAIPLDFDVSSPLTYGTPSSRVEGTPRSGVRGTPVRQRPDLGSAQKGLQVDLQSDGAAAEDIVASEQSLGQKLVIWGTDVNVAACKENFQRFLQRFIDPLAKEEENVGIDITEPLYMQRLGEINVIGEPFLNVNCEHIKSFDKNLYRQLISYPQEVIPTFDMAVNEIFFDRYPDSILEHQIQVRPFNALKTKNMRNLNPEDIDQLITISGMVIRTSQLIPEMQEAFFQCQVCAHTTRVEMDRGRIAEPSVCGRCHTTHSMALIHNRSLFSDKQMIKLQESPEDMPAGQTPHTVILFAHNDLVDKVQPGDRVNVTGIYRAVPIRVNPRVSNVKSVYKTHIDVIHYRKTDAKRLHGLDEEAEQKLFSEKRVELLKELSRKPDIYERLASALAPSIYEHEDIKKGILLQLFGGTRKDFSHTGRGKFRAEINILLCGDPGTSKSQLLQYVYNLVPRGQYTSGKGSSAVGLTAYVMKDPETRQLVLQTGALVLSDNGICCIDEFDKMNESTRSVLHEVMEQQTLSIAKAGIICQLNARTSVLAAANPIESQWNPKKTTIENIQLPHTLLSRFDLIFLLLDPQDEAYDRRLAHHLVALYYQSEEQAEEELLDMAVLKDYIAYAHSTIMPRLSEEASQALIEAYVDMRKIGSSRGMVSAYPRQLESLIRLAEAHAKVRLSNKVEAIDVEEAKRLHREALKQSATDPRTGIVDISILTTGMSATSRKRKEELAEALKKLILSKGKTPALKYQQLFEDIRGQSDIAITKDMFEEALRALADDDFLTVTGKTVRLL

Experiment [6] has as its target High affinity nerve growth factor receptor (Homo sapiens, UniProt P04629).
In experiment [7] the target is cAMP-dependent protein kinase catalytic subunit alpha (Homo sapiens, UniProt P17612).
The target in experiment [8] is Protein kinase C beta type (Homo sapiens, UniProt P05771).
Chain of Protein kinase C beta type (P05771 whole entry): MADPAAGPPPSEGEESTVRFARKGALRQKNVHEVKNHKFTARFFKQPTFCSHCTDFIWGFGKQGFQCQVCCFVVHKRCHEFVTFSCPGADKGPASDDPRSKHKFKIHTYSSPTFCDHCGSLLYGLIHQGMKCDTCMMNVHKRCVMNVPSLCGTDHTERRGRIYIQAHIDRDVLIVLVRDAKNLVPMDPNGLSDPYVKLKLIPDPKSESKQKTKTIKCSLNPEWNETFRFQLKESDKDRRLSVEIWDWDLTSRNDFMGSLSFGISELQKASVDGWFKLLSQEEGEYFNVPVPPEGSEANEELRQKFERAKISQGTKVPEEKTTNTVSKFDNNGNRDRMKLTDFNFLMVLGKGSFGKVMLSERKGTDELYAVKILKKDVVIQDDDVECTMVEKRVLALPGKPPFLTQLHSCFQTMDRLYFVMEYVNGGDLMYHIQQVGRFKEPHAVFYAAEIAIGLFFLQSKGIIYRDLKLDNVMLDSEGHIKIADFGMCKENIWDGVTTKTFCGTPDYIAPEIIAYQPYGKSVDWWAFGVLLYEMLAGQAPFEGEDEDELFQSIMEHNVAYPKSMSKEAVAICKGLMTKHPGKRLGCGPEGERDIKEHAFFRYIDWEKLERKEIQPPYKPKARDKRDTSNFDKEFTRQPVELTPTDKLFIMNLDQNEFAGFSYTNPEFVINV
Experiment [9] addresses T3, Serine/threonine-protein kinase TAO1 (Homo sapiens, UniProt Q7L7X3).
T3 sequence (Q7L7X3 whole entry): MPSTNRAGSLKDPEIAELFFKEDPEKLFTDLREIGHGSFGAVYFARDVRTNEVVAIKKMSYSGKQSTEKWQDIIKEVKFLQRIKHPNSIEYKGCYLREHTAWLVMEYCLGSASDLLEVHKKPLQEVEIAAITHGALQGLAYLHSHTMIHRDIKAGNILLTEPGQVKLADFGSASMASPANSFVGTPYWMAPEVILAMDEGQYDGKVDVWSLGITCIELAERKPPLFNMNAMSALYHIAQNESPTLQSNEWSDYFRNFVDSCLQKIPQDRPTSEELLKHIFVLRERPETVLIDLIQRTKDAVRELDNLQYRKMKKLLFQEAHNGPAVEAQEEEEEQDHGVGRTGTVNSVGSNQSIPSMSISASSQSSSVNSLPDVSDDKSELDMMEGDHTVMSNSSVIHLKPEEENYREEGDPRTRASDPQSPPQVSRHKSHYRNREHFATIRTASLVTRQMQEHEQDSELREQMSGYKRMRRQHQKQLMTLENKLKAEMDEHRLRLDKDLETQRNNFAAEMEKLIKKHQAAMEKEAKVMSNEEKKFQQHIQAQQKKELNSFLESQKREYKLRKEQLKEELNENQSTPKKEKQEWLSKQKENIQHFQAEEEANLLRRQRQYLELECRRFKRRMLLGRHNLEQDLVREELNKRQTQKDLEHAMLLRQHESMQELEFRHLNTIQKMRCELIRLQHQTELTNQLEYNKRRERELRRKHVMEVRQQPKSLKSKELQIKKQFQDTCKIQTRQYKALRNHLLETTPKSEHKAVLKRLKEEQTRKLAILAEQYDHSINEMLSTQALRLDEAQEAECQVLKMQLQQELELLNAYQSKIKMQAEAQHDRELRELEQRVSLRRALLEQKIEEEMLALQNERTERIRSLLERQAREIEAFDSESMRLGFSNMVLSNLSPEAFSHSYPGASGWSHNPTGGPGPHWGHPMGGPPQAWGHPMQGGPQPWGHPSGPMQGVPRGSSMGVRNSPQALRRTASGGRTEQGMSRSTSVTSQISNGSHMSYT

For a further experiment, the target named is Adenosine kinase (Homo sapiens, UniProt P55263).
Chain of Adenosine kinase (P55263 whole entry): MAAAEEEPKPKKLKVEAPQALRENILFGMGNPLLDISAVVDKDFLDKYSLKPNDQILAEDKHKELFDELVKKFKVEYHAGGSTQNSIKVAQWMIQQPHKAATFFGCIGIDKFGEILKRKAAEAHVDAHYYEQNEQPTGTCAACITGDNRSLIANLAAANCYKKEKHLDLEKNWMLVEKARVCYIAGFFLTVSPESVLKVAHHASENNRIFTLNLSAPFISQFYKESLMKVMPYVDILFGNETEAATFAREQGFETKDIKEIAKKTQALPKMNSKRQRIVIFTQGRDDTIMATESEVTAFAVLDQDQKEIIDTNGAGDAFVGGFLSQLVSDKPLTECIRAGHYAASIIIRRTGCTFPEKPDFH

As a reminder, the Kd is the free concentration of one partner at which half of the binding sites on the other are occupied at equilibrium, for simple one-to-one binding.

Counter-ions that a name gives are not always drawn. Calls of active or inactive are those of the source. Cut-off read from the data, not from the text of the source, for most assays here: actives have a measured Kd and inactives only a lower limit. Bounds are passed on as bounds.
Note: in the data inactive means no Kd found up to 30 µM.

Chain of Cyclin-dependent kinase 7 (P50613 whole entry): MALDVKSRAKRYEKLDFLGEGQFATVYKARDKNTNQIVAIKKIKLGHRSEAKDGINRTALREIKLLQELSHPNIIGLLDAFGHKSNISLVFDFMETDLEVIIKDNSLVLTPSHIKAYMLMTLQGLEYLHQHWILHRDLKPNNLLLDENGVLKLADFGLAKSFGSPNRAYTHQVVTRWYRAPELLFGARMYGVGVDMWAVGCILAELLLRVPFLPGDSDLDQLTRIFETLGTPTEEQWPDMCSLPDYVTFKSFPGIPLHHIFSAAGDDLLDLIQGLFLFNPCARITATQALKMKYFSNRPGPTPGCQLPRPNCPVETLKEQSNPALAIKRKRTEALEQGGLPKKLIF
Chain of Tyrosine-protein kinase HCK (P08631 whole entry): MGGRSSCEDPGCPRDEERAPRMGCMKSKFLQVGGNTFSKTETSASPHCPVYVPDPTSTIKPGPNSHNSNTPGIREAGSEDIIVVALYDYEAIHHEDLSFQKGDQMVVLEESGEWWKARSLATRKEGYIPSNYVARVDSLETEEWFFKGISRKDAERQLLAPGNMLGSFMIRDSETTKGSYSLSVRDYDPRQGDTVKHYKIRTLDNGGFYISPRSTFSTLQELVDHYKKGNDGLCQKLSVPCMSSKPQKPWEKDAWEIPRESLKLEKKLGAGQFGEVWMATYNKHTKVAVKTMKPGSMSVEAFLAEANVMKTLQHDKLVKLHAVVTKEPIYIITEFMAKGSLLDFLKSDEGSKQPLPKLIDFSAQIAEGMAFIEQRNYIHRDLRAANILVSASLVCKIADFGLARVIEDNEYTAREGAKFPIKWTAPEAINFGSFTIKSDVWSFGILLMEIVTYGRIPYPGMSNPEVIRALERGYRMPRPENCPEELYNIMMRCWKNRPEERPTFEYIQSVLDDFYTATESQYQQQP
Chain of High affinity nerve growth factor receptor (P04629 whole entry): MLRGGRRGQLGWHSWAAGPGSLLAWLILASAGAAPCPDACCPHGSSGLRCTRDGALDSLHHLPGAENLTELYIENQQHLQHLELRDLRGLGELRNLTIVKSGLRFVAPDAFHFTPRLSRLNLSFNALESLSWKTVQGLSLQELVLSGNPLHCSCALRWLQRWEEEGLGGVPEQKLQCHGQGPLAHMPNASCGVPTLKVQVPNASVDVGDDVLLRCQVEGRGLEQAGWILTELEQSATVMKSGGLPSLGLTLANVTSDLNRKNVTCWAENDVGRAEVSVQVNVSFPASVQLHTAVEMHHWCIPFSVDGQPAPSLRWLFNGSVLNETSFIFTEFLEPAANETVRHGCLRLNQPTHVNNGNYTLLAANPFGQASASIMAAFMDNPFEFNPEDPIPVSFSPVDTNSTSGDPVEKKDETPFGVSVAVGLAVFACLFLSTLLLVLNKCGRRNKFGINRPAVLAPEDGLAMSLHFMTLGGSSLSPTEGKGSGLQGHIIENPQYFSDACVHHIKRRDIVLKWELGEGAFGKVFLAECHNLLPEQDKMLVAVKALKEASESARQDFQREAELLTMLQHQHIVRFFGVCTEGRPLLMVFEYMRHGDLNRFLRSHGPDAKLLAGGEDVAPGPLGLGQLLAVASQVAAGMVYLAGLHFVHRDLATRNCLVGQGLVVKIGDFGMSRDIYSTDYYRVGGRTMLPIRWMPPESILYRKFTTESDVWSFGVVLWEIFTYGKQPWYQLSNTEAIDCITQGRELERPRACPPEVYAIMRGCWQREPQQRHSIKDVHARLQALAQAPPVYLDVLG

For the compound `C[C@@H](Oc1cc(C(=O)Nc2ccc(C(=O)N3CCN(C)CC3)cc2)nnc1N)c1c(Cl)ccc(F)c1Cl`, the Kd (in experiment [1]; on GTP-binding protein 4; in experiment [2]; in [3]; in [4]; in experiment [5]) was > 30 µM (inactive) throughout. Besides, the Kd in experiment [6], in [7], in experiment [8] and in [9] was > 30 µM (inactive) in each case.
Turning to `C[C@H]1CNCCCN1S(=O)(=O)c1cccc2cncc(F)c12`, the Kd (at Adenosine kinase; in [1]; in [2]; in [3]; in experiment [4]; in [5]) was > 30 µM (inactive) in each case. Besides, the Kd in experiment [6], in experiment [7], in experiment [8] and in experiment [9] was > 30 µM (inactive) each time.
Take `CC(=O)c1cnc2ccc(-c3cc(Cl)c(O)c(Cl)c3)nc2c1N[C@H]1CC[C@H](CN(C)C)CC1`: the Kd at Adenosine kinase was > 30 µM (inactive); on GTP-binding protein 4, > 30 µM (inactive); in experiment [2], 0.116 µM (active); in [4], > 30 µM (inactive); in experiment [5], > 30 µM (inactive); in [6], > 30 µM (inactive). The Kd in experiment [7] is > 30 µM (inactive); in experiment [8], 0.233 µM (active); in experiment [9], 0.017 µM (active).
On to `Nc1ncnc2c1c(-c1cccc(OCc3ccccc3)c1)cn2[C@H]1C[C@@H](CN2CCC2)C1` [AEW-541], for which the Kd is > 30 µM (inactive) at Adenosine kinase; > 30 µM (inactive) in experiment [1]; 0.623 µM (active) in experiment [2]; > 30 µM (inactive) in experiment [3]; > 30 µM (inactive) in experiment [4]; > 30 µM (inactive) in [5]. For the same compound, the Kd in experiment [6], in experiment [7], in experiment [8] and in experiment [9] was > 30 µM (inactive) throughout.
For the compound `CCS(=O)(=O)N1CCN(c2ccc(Nc3ncc(C(N)=O)c(NC4CC4)n3)cc2)CC1` [Cerdulatinib Hydrochloride], the Kd is > 30 µM (inactive) in experiment [1]; > 30 µM (inactive) at GTP-binding protein 4; > 30 µM (inactive) in experiment [2]; 1.29 µM (active) in experiment [3]; > 30 µM (inactive) in experiment [4]; > 30 µM (inactive) in experiment [5]. In addition, the Kd in experiment [6] is > 30 µM (inactive); in experiment [7], > 30 µM (inactive); in experiment [8] it was > 30 µM (inactive); in experiment [9], 2.17 µM (active).
`CCn1cc(-c2ccnc3[nH]c(-c4cccc(CN(C)C)c4)cc23)c(-c2ccc(NC(=O)N(C)C)cc2)n1` [GSK-1070916]: the Kd (on Adenosine kinase; in experiment [1]; on GTP-binding protein 4; in experiment [2]; in [4]; in experiment [5]) was > 30 µM (inactive) in each case. The Kd in [6] is 5.95 µM (active); in experiment [7] it was > 30 µM (inactive); in [8], > 30 µM (inactive).
As to `CNC(=O)c1nn(C)c2c1C(C)(C)Cc1cnc(Nc3ccc(N4CCN(C)CC4)cc3)nc1-2` [MILCICLIB], the Kd at Adenosine kinase is > 30 µM (inactive); in [2], 1.32 µM (active); in experiment [3], 2.97 µM (active); in experiment [4], > 30 µM (inactive); in experiment [5], > 30 µM (inactive); in [6], 2.96 µM (active). Besides, the Kd in experiment [7] and in [8] was > 30 µM (inactive) throughout.
As to `CN1CCN(CCOc2cc(OC3CCOCC3)c3c(Nc4c(Cl)ccc5c4OCO5)ncnc3c2)CC1` [SARACATINIB], the Kd was > 30 µM (inactive) on Adenosine kinase; > 30 µM (inactive) in experiment [1]; 0.1 µM (active) in [2]; > 30 µM (inactive) in experiment [3]; > 30 µM (inactive) in experiment [4]; > 30 µM (inactive) in experiment [5]. Besides, the Kd in experiment [6], in experiment [7], in experiment [8] and in experiment [9] was > 30 µM (inactive) throughout.
Regarding `CCS(=O)(=O)c1cccc(-c2cc(C(=O)NC3CCN(C)CC3)c(C)c3[nH]c4ncc(C)cc4c23)c1` [TAK-901], the Kd is > 30 µM (inactive) on Adenosine kinase; 0.205 µM (active) in experiment [1]; 0.143 µM (active) in [2]; > 30 µM (inactive) in [3]; > 30 µM (inactive) in [4]; > 30 µM (inactive) in [5]. In addition, the Kd in experiment [6] is 0.843 µM (active); in experiment [7], > 30 µM (inactive); in [8], > 30 µM (inactive); in [9], > 30 µM (inactive).
`Cn1ncc(Cl)c1-c1cc(C(=O)N[C@H](CN)Cc2ccc(F)c(F)c2)oc1Cl` [UPROSERTIB]: the Kd (at Adenosine kinase; at GTP-binding protein 4; in [2]; in experiment [3]; in [4]; in experiment [6]) was > 30 µM (inactive) each time. Further, the results for the Kd in [7] and in experiment [9] were 0.01 µM (active) and > 30 µM (inactive), respectively.
With `CN1C/C=C/CCOc2cccc(c2)-c2ccnc(n2)Nc2cccc(c2)C1` [ZOTIRACICLIB], the Kd was > 30 µM (inactive) at Adenosine kinase; 0.473 µM (active) in [1]; > 30 µM (inactive) on GTP-binding protein 4; > 30 µM (inactive) in experiment [2]; > 30 µM (inactive) in [3]; > 30 µM (inactive) in experiment [4]. Moreover, the Kd in experiment [5] was > 30 µM (inactive); in experiment [7] it was > 30 µM (inactive); in [8] it was 4.32 µM (active); in [9] it was 2.14 µM.

For the origin of these results see ChEMBL document CHEMBL3991601, “The target landscape of clinical kinase drugs” (Science, 2017).
